Reference: patent publication US9447039B2, “Indole carboxamide derivatives and uses thereof” (priority 2012, dated 2016)
Converted amounts (≈) assume the structure as drawn.

Tested on: Mycobacterium tuberculosis H37Rv (ATCC #27294)
Assay: Minimum Inhibitory Concentration (MIC50) determination
Type: cell-based
Conditions: 120 h
Description: Mycobacterium tuberculosis H37Rv (ATCC #27294) (Mtb) strain was maintained in Middlebrook 7H9 broth medium supplemented with 0.05% Tween 80 and 10% ADS supplement. ADS supplement contains 5% bovine serum albumin fraction V. 2% D-dextrose and 0.8% of sodium chloride. Middlebrook 7H11 agar medium supplemented with 10% OADC (oleic acid, albumin, dextrose and catalase) was used as solid media for growing Mtb. Stock solutions of the compounds were prepared using 90% DMSO.
Minimum Inhibitory Concentration (MIC50) Determination
In Table 5 below, MIC50 is defined as the lowest concentration of the compound that inhibited 50% growth of the wild type strain compared to untreated controls. Test compounds were two or three fold serially diluted in duplicates and spotted by mosquito HTS to 384-well clear plates, resulting in 10 dilutions of each compound. A volume of 50 μl of Mtb culture (final OD600 of 0.02) was added to each well, and the assay plates were incubated at 37° C. for 5 days. Growth of bacteria was measured by reading absorbance at 600 nm using a Spectramax M2 spectrophotometer. MIC50 values were determined by using Activity Base software.

Compound | MIC50 [µM]
CC1CCC(NC(=O)c2cc3c(Cl)cccc3[nH]2)CC1 (stereo not shown) [Example 4Y, 4-Chloro-N-(4-methylcyclohexyl)-1H-indole-2-carboxamide] | 0.22 (≈ 0.064 µg/mL)
Cc1cc(C)c2cc(C(=O)N[C@@H]3CCCC[C@@H]3C)[nH]c2c1 [Example 4A, 4,6-Dimethyl-N-((1R,2S)-2-methylcyclohexyl)-1H-indole-2-carboxamide] | 0.07 (≈ 0.0199 µg/mL)
CC1CCC(NC(=O)c2cc3c(F)cc(Cl)cc3[nH]2)CC1 (stereo not shown) [Example 4AS, 6-Chloro-4-fluoro-N-(4-methylcyclohexyl)-1H-indole-2-carboxamide] | 0.23 (≈ 0.071 µg/mL)
Cc1cc(NC(C)C)cc2[nH]c(C(=O)N[C@@H]3CCCC[C@@H]3C)cc12 [Example 6E, 6-(Isopropylamino)-4-methyl-N-((1R,2S)-2-methylcyclohexyl)-1H-indole-2-carboxamide] | 2.92 (≈ 0.958 µg/mL)
C[C@H]1CC[C@H](NC(=O)c2cc3c(F)cc(F)cc3[nH]2)CC1 [Example 4AU, 4,6-Difluoro-N-(trans-4-methylcyclohexyl)-1H-indole-2-carboxamide] | 0.56 (≈ 0.164 µg/mL)
O=C(NC1CCC(CF)CC1)c1cc2c(Cl)cc(Cl)cc2[nH]1 (stereo not shown) [Example 7A, 4,6-Dichloro-N-(4-(fluoromethyl)cyclohexyl)-1H-indole-2-carboxamide] | 0.14 (≈ 0.0481 µg/mL)
CC1(C)CCC(NC(=O)c2cc3c(F)cc(F)cc3[nH]2)CC1 [Example 2A, N-(4,4-Dimethylcyclohexyl)-4,6-difluoro-1H-indole-2-carboxamide] | 0.023 (≈ 0.00705 µg/mL)
Cc1cc(C#N)c2cc(C(=O)N[C@@H]3CCCC[C@@H]3C)[nH]c2c1 [Example 4AK, 4-Cyano-6-methyl-N-((1R,2S)-2-methylcyclohexyl)-1H-indole-2-carboxamide] | 0.02 (≈ 0.00591 µg/mL)
Cc1cc(C)c2cc(C(=O)Nc3ccccc3C)[nH]c2c1 [Example 3L, 4,6-Dimethyl-N-(o-tolyl)-1H-indole-2-carboxamide] | 3.12 (≈ 0.868 µg/mL)
C[C@H]1CCCC[C@H]1NC(=O)c1cc2c(Cl)cc(Cl)cc2[nH]1 [Example 4J, 4,6-Dichloro-N-((1R,2S)-2-methylcyclohexyl)-1H-indole-2-carboxamide] | 0.035 (≈ 0.0114 µg/mL)
COc1ccc2cc(C(=O)N[C@@H]3CCCC[C@@H]3C)[nH]c2c1 [Example 4AM, 6-Methoxy-N-((1R,2S)-2-methylcyclohexyl)-1H-indole-2-carboxamide] | 6.19 (≈ 1.77 µg/mL)
C#CC1CCCCC1NC(=O)c1cc2c(Cl)cc(Cl)cc2[nH]1 (stereo not shown) [Example 4BE, 4,6-Dichloro-N-(2-ethynylcyclohexyl)-1H-indole-2-carboxamide] | 0.22 (≈ 0.0738 µg/mL)
Cc1cc(OCCN2CCOCC2)cc2[nH]c(C(=O)NC3CCCCC3)cc12 [Example 9A, N-Cyclohexyl-4-methyl-6-(2-morpholinoethoxy)-1H-indole-2-carboxamide] | 4.94 (≈ 1.9 µg/mL)
COCC1CCC(NC(=O)c2cc3c(Cl)cc(Cl)cc3[nH]2)CC1 (stereo not shown) [Example 8A, 4,6-Dichloro-N-(4-(methoxymethyl)cyclohexyl)-1H-indole-2-carboxamide] | 1.51 (≈ 0.536 µg/mL)
Cc1cc(Nc2ccccc2)cc2[nH]c(C(=O)N[C@@H]3CCCC[C@@H]3C)cc12 [Example 6A, 4-methyl-N-((1R,2S)-2-methylcyclohexyl)-6-(phenylamino)-1H-indole-2-carboxamide] | 0.145 (≈ 0.0524 µg/mL)
Cc1ccc2cc(C(=O)N[C@@H]3CCCC[C@@H]3C)[nH]c2c1 [Example 4Z, 6-Methyl-N-((1R,2S)-2-methylcyclohexyl)-1H-indole-2-carboxamide] | 0.36 (≈ 0.0973 µg/mL)
Cc1cc(C)c2cc(C(=O)N[C@@H]3CCC[C@@H](C)[C@@H]3C)[nH]c2c1 [Example 4C, N-((1R,2S,3R)-2,3-Dimethylcyclohexyl)-4,6-dimethyl-1H-indole-2-carboxamide] | 0.03 (≈ 0.00895 µg/mL)
CC1CCC(NC(=O)c2cc3ccc(Cl)c(Cl)c3[nH]2)CC1 (stereo not shown) [Example 4W, 6,7-Dichloro-N-(4-methylcyclohexyl)-1H-indole-2-carboxamide] | 0.72 (≈ 0.234 µg/mL)
Cc1cc(C)c2cc(C(=O)N[C@@H]3CCC[C@H](C)[C@@H]3C)[nH]c2c1 [Example 4B, N-((1R,2S,3S)-2,3-Dimethylcyclohexyl)-4,6-dimethyl-1H-indole-2-carboxamide] | 0.01 (≈ 0.00298 µg/mL)

Compound | MIC50 [µM]
Cc1cc(C)c2cc(C(=O)NC3CCCCC3C(F)(F)F)[nH]c2c1 (stereo not shown) [Example 4M, 4,6-Dimethyl-N-(2-(trifluoromethyl)cyclohexyl)-1H-indole-2-carboxamide] | 0.585 (≈ 0.198 µg/mL)
CC1CCC(NC(=O)c2cc3c(Cl)cc(Cl)cc3[nH]2)CC1 (stereo not shown) [Example 4G, 4,6-Dichloro-N-(4-methylcyclohexyl)-1H-indole-2-carboxamide] | 0.057 (≈ 0.0185 µg/mL)
COc1cc(OC)c2cc(C(=O)N[C@@H]3CCCC[C@@H]3C)[nH]c2c1 [Example 4AO, 4,6-Dimethoxy-N-((1R,2S)-2-methylcyclohexyl)-1H-indole-2-carboxamide] | 1.46 (≈ 0.462 µg/mL)
CC1CCC(NC(=O)c2cc3cccc(Cl)c3[nH]2)CC1 (stereo not shown) [Example 4X, 7-Chloro-N-(4-methylcyclohexyl)-1H-indole-2-carboxamide] | 0.9 (≈ 0.262 µg/mL)
Cc1cc(Br)c2cc(C(=O)N[C@@H]3CCCC[C@@H]3C)[nH]c2c1 [Example 4AI, 4-Bromo-6-methyl-N-((1R,2S)-2-methylcyclohexyl)-1H-indole-2-carboxamide] | 0.06 (≈ 0.021 µg/mL)
O=C(NC1CCC(F)(F)CC1)c1cc2c(Cl)cc(Cl)cc2[nH]1 [Example 4P, 4,6-Dichloro-N-(4,4-difluorocyclohexyl)-1H-indole-2-carboxamide] | 0.565 (≈ 0.196 µg/mL)
CC1CCC(NC(=O)c2cc3c(F)cccc3[nH]2)CC1 (stereo not shown) [Example 4BG, 4-Fluoro-N-(4-methylcyclohexyl)-1H-indole-2-carboxamide] | 2.13 (≈ 0.584 µg/mL)
Cc1cc(C)c2cc(C(=O)Nc3ccc(Cl)cc3)[nH]c2c1 [Example 3B, N-(4-Chlorophenyl)-4,6-dimethyl-1H-indole-2-carboxamide] | 2.95 (≈ 0.881 µg/mL)
Cc1cc(N2CCCCC2)cc2[nH]c(C(=O)N[C@@H]3CCCC[C@@H]3C)cc12 [Example 6C, 4-Methyl-N-((1R,2S)-2-methylcyclohexyl)-6-(piperidin-1-yl)-1H-indole-2-carboxamide] | 5.12 (≈ 1.81 µg/mL)
COc1ccc2[nH]c(C(=O)N[C@@H]3CCCC[C@@H]3C)cc2c1OC [Example 4AN, 4,5-Dimethoxy-N-((1R,2S)-2-methylcyclohexyl)-1H-indole-2-carboxamide] | 1.02 (≈ 0.323 µg/mL)
Cc1cc(C)c2cc(C(=O)NCC(C)C)[nH]c2c1 [Example 3J, N-Isobutyl-4,6-dimethyl-1H-indole-2-carboxamide] | 11.8 (≈ 2.9 µg/mL)
O=C(NC1CCCCC1)c1cc2c(F)cc(F)cc2[nH]1 [Example 4BB, N-Cyclohexyl-4,6-difluoro-1H-indole-2-carboxamide] | > 20
Cc1ccc2[nH]c(C(=O)NC3CCCCC3)c(C)c2c1 [Example 4BD, N-cyclohexyl-3,5-dimethyl-1H-indole-2-carboxamide] | 3.51 (≈ 0.949 µg/mL)
C[C@H]1CCCC[C@H]1NC(=O)c1cc2c(F)cccc2[nH]1 [Example 4AY, 4-Fluoro-N-((1R,2S)-2-methylcyclohexyl)-1H-indole-2-carboxamide] | 1.83 (≈ 0.502 µg/mL)
C[C@H]1CCCC[C@H]1NC(=O)c1cc2c(C#N)cccc2[nH]1 [Example 4AD, 4-Cyano-N-((1R,2S)-2-methylcyclohexyl)-1H-indole-2-carboxamide] | 0.76 (≈ 0.214 µg/mL)
Cc1cc(C)c2cc(C(=O)NC3CCCCCC3)[nH]c2c1 [Example 3G, N-Cycloheptyl-4,6-dimethyl-1H-indole-2-carboxamide] | 0.098 (≈ 0.0279 µg/mL)
Cc1cc(C)c2cc(C(=O)N[C@H]3CCC[C@@H](C)[C@H]3C)[nH]c2c1 [Example 4I, N-((1S,2R,3R)-2,3-Dimethylcyclohexyl)-4,6-dimethyl-1H-indole-2-carboxamide] | 0.02 (≈ 0.00597 µg/mL)
CC1CCC(NC(=O)c2cc3c(C(F)(F)F)cc(C(F)(F)F)cc3[nH]2)CC1 (stereo not shown) [Example 4H, N-(4-Methylcyclohexyl)-4,6-bis(trifluoromethyl)-1H-indole-2-carboxamide] | 0.32 (≈ 0.126 µg/mL)
